Tests used:
MS IgG = experiment: Indirect ELISA of MS IgG binding to receptor peptides; parameters: species or system human; conditions: 200 μg immunoglobulins
Description: FIG. 6: Dose-response curves of the interaction between MS sera and DDSK peptide. (A) Sera of Multiple Sclerosis patients and Control (control group is defined in material and method below) (200 μg) were incubated with different concentrations (50-100-250 μM) of peptide DDSK. For the detection, inventors used a secondary antibody anti human IgG conjugated with HRP and (3,3′,5,5′-Tetramethylbenzidine) TMB solution that was added for each well and incubated for 15-30 min. Equal volume of stopping solution (2 M H2SO4) was added to the plate and absorbance (optical density) of plate was read at 450 nm. The statistical analysis derived from 9 experiments. Values are mean±SEM. *P<0.05 MS vs CTRL (B) Linear representation of dose-response curve Values are mean±SEM. *P<0.05 MS vs CTRL.
FIGS. 7A, 7B, 7C and 7D: MS sera recognize specially receptor's peptides. […] Equal volume of stopping solution (2 M H2SO4) was added to the plate and absorbance (optical density) of plate was read at 450 nm. […]
A. Sera of Multiple Sclerosis patients and Control (200 μg) were incubated in absence (uncoated) or presence of 100 μM of DDSK peptide. […] Equal volume of stopping solution (2 M H2SO4) was added to the plate and absorbance (optical density) of plate was read at 450 nm. […]
Diluted peptide (20 μg/ml) was coated to the wells of a PVC microtiter plate and incubated at 4° C. overnight. […] For the detection, we used a secondary antibody anti human (recognized constant region of the patient antibody conjugated with HRP and (3,3′,5,5′-Tetramethylbenzidine) TMB solution that was added for each well and incubated for 15-30 min. Equal volume of stopping solution (2 M H2SO4) was added to the plate and absorbance (optical density) of plate was read at 450 nm.
To evaluate the peptide concentration to use for ELISA assay we performed a dose-response curve. […] (named DDSK in the figures) and the absorbance (optical density) of plate was read at 450 nm. […]

MO3-13 cells = experiment: Determination of reactive oxygen species (DCF fluorescence) in MO3-13 cells; format: cell-based, human; conditions: 50 μM peptide 30 min
Description: (§1) FIG. 10A: DDSK peptide reverts the effects of Ig from MS patients on ROS levels in MO3-13 cells. MO3-13 cells were grown to semi-confluence in 24 multiwell plates and incubated for 18 h in medium containing 0.2% FBS. The cells were washed twice with FBS free medium, incubated with 50 μM of DDSK for 30 min and then with 200 μg/ml of IgG from Control (IgGCtr) or MS (IgGMS) patients for 30 min. Then, the cells were incubated with 10 μM DCHF-DA for 10 min, washed three times and DCF fluorescence was measured using a plate reader fluorometer. The histograms show the mean+/−SEM values obtained in 5 different experiments from 7 control and 7 MS subjects. # p<0.05 vs IgGCtr; *p<0.05 vs IgGMS.
as §1, with “MO3-13” for “FIG. 10A: DDSK peptide reverts the effects of Ig from MS patients on ROS levels in MO3-13 cells. MO3-13”, “Scrambled peptide (Sc)” for “DDSK”, “obtained” for “obtained in 5 different experiments”, “3” for “7”, “subjects.” for “subjects. # p<0.05 vs IgGCtr;”, “IgGCtr.” for “IgGMS.”
ROS levels were determined using the membrane-permeant fluorogenic probe 5,6-carboxy-2′,7′-dichlorofluoresceindiacetate, DCHFDA (Molecular Probes, Leiden, the Netherlands). The assay was based on the fluorescence detection of dichlorofluorescein (DCF), formed by ROS-mediated oxidation of the non-fluorescent precursor, dichlorofluorescin.
MO3-13 cells were grown to semi-confluence in 24 multiwell plates (45000 cell/well) and incubated for 18 h in medium containing 0.2% FBS before the experiments. […] DCF fluorescence was measured using the plate reader Fluoroskan Ascent FL fluorometer (Thermo Electron Oy, Vantaa, Finland) and data analyzed by Ascent software.

- binding of MS IgG to peptide respect to scrambled (MS IgG; 100 μM peptide): bind specifically
- peptide concentration at which MS IgG bind the peptide (MS IgG; dose-response 50-100-250 μM peptide, absorbance 450 nm): higher than 50 μM
Sequence: DDSKVFKEGS
- effect of peptide preincubation on ROS levels of IgG MS treated cells (MO3-13 cells; then 200 μg/ml IgG MS 30 min): reverted the effect
- effect of peptide preincubation on ROS levels of IgGCtr treated samples (MO3-13 cells; then 200 μg/ml IgGCtr 30 min): did not significantly affect

From US11505592B2, “Diagnosis and therapy of multiple sclerosis” (PRINDEX S.R.L., priority 2015, dated 2022)
